Experimental data from patent publication US8618289B2 (Ambit Biosciences Corporation, priority 2008, dated 2013).
Counter-ions that a name gives are not always drawn.

Key:
RAF kinases [1] = target: RAF kinases (Homo sapiens, UniProt P15056); assay: biochemical
RAF kinases [2] = target: RAF kinases (Homo sapiens, UniProt P04049); assay: biochemical
A375 cells = assay: cells; settings: Homo sapiens, A-375, read-out: A375 Viability EC50
Protocol: The following day, the medium was replaced with 0.5% FBS in M3 for overnight incubation. […] The cells were incubated with compound or control for 72 hours at 37° C. under 10% CO2. Following incubation, Cell Titer Blue reagent (Promega) was added to each well containing compounds or controls, and then incubated for 3 hours at 37° C. under 10% CO2. Proliferation was measured by fluorescence with excitation at 560 nm and emission at 590 nm using SoftMax Pro.

[3] = tested on: MEK1 phosphorylation in the A375 human melanoma cell line; assay: cells; settings: A-375, read-out: pMEK IC50

Chain of RAF kinases (Homo sapiens, UniProt P04049) (P04049 whole entry): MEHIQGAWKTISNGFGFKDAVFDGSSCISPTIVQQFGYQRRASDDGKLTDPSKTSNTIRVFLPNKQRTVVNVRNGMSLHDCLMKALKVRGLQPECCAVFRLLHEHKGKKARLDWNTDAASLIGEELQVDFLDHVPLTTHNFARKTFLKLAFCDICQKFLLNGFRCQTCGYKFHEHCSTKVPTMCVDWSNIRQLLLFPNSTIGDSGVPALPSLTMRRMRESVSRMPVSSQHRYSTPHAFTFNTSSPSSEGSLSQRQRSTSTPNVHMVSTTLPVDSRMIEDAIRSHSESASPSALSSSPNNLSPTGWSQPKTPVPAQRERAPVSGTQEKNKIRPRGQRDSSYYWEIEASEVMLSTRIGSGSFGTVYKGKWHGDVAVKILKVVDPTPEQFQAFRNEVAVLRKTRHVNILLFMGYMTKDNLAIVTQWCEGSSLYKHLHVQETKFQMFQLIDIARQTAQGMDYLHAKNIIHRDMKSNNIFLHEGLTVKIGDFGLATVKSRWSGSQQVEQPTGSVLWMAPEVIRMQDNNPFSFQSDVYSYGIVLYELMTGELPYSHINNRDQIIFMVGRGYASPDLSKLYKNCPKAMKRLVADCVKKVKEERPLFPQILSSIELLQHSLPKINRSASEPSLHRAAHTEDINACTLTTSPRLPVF
Chain of RAF kinases (Homo sapiens, UniProt P15056) (P15056 whole entry): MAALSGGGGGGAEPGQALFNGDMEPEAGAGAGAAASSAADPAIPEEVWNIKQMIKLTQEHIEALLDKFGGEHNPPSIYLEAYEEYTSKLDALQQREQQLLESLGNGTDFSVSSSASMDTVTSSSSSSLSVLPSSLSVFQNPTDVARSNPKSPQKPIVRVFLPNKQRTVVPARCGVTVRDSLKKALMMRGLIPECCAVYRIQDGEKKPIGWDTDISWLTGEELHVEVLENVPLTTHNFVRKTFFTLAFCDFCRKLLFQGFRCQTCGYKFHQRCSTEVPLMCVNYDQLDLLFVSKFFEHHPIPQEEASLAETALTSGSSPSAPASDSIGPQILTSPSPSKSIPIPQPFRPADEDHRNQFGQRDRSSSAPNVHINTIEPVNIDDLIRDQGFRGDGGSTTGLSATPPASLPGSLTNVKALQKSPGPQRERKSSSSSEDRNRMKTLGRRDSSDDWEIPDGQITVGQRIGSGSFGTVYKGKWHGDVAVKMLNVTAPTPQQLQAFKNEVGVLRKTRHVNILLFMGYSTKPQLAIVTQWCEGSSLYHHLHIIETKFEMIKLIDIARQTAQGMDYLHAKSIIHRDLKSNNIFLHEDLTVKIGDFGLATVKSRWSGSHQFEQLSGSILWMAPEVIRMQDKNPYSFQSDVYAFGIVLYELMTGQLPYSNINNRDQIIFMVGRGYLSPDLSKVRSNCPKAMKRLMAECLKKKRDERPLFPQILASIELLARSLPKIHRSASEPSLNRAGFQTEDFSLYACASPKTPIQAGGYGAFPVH

SMILES | Kd (RAF kinases [1]) [nM] | EC50 (A375 cells) [nM] | IC50 [3] [nM] | Kd (RAF kinases [2]) [nM]
COc1cc2c(Sc3cccc(NC(=O)Nc4cc(C(C)(C)C)on4)c3)ncnc2cc1OCCN1CCN(S(C)(=O)=O)CC1 [Ex 81, 1-(5-tert-butylisoxazol-3-yl)-3-(3-(6-methoxy-7-(2-(4-(methylsulfonyl)piperazin-1-yl)ethoxy)quinazolin-4-ylthio)phenyl)urea] | 500 to 1000 | 250 to 500 | < 250 | 500 to 1000
COc1cc2ncnc(Oc3cccc(NC(=O)Nc4cc(C(C)(C)C)nn4C)c3)c2cc1OC [Ex 158, 1-(3-tert-butyl-1-methyl-1H-pyrazol-5-yl)-3-(3-(6,7-dimethoxyquinazolin-4-yloxy)phenyl)urea] |  | > 1000 | 250 to 500 | 500 to 1000
COc1cc2c(Oc3cccc(NC(=O)Nc4cc(C(C)(C)C)on4)c3)ncnc2cc1OCCCN1CCC(O)C1 (stereo not drawn) [Ex 31, 1-(5-tert-butyl-isoxazol-3-yl)-3-(3-{7-[3-(3-hydroxy-pyrrolidin-1-yl)-propoxy]-6-methoxy-quinazolin-4-yloxy}-phenyl)-urea] | 250 to 500 | < 250 | < 250 | 250 to 500
COc1cc2c(Oc3cccc(NC(=O)Nc4cc(C(C)(C)C)on4)c3)ncnc2cc1OCCCN1CCC(CO)CC1 [Ex 29] | 250 to 500 | < 250 | < 250 | 250 to 500
COCCOc1cc2c(Sc3cccc(NC(=O)Nc4cc(C(C)(C)C)on4)c3)ncnc2cc1OC [Ex 45, 1-(5-tert-butylisoxazol-3-yl)-3-(3-(7-methoxy-6-(2-methoxyethoxy)quinazolin-4-ylthio)phenyl)urea] | 500 to 1000 | 250 to 500 | < 250 | 250 to 500
COc1cc2c(Sc3cccc(NC(=O)Nc4cc(C(C)(C)C)on4)c3)ncnc2cc1OCCCN1CCN(CCO)CC1 [Ex 75, 1-(5-tert-butylisoxazol-3-yl)-3-(3-(7-(3-(4-(2-hydroxyethyl)piperazin-1-yl)propoxy)-6-methoxyquinazolin-4-ylthio)phenyl)urea] | 250 to 500 | > 1000 | < 250 | 250 to 500
COc1cc2c(Oc3cccc(NC(=O)Nc4cc(C(C)(C)C)on4)c3)ncnc2cc1OCCCN1CC[C@H](O)C1 [Ex 33, (S)-1-(5-tert-butylisoxazol-3-yl)-3-(3-(7-(3-(3-hydroxypyrrolidin-1-yl)propoxy)-6-methoxyquinazolin-4-yloxy)phenyl)urea] | 250 to 500 | < 250 | < 250 | 250 to 500
COc1cc2ncnc(Sc3cccc(NC(=O)Nc4cc(C(C)(C)C#N)nn4-c4ccccc4)c3)c2cc1OC [Ex 309, 1-(3-(2-cyanopropan-2-yl)-1-phenyl-1H-pyrazol-5-yl)-3-(3-(6,7-dimethoxyquinazolin-4-ylthio)phenyl)urea] | 500 to 1000 |  | < 250 | 500 to 1000
CCOc1cc2ncnc(Oc3cccc(NC(=O)Nc4cc(C(C)(C)C)on4)c3)c2cc1OC [Ex 6, 1-(5-tert-butylisoxazol-3-yl)-3-[3-(7-ethoxy-6-methoxyquinazolin-4-yloxy)phenyl]urea hydrochloride] |  | 250 to 500 | < 250 | 500 to 1000
COc1cc2ncnc(Oc3cccc(NC(=O)Nc4cc(CN5CCOCC5)cc(C(F)(F)F)c4)c3)c2cc1OC [Ex 151, 1-(3-(6,7-dimethoxyquinazolin-4-yloxy)phenyl)-3-(3-(morpholinomethyl)-5-(trifluoromethyl)phenyl)urea] |  | > 1000 | > 1000 | 250 to 500
CCOc1cc2c(Oc3cccc(NC(=O)Nc4cc(C(C)(C)C)on4)c3)ncnc2cc1OC [Ex 11, 1-(5-tert-butylisoxazol-3-yl)-3-(3-(6-ethoxy-7-methoxyquinazolin-4-yloxy)phenyl)urea] |  | < 250 | < 250 | 500 to 1000
COCCOc1ccc2ncnc(Oc3cccc(NC(=O)Nc4cc(C(C)(C)C)on4)c3)c2c1 [Ex 40, 1-(5-tert-butylisoxazol-3-yl)-3-(3-(6-(2-methoxyethoxy)quinazolin-4-yloxy)phenyl)urea] |  | 500 to 1000 | < 250 | 250 to 500
COc1cc2ncnc(Oc3cccc(NC(=O)Nc4ccc(OC(F)(F)F)cc4)c3)c2cc1OC [Ex 177, 1-(3-(6,7-dimethoxyquinazolin-4-yloxy)phenyl)-3-(4-(trifluoromethoxy)phenyl)urea] | 250 to 500 | > 1000 | > 1000 | 

The next lines start with results.

Kd (RAF kinases [1]) [nM] | EC50 (A375 cells) [nM] | IC50 [3] [nM] | SMILES | Kd (RAF kinases [2]) [nM]
250 to 500 | < 250 | < 250 | COc1cc2ncnc(Oc3cccc(NC(=O)Nc4cc(C(C)(C)C)on4)c3)c2cc1OCCCN1CCN(S(C)(=O)=O)CC1 [Ex 25, 1-(5-tert-butylisoxazol-3-yl)-3-(3-(7-methoxy-6-(3-(4-(methylsulfonyl)piperazin-1-yl)propoxy)quinazolin-4-yloxy)phenyl)urea] | 250 to 500
250 to 500 | 500 to 1000 | < 250 | COc1cc2ncnc(Sc3cccc(NC(=O)Nc4cc(C(C)(C)C)on4)c3)c2cc1OCCN1CCN(CCO)CC1 [Ex 68, 1-(5-tert-butylisoxazol-3-yl)-3-(3-(6-(2-(4-(2-hydroxyethyl)piperazin-1-yl)ethoxy)-7-methoxyquinazolin-4-ylthio)phenyl)urea] | 250 to 500
250 to 500 | > 1000 | < 250 | COc1cc2c(Sc3cccc(NC(=O)Nc4cc(C(C)(C)C)on4)c3)ncnc2cc1OCCCN1CCCCC1 [Ex 76, 1-(5-tert-butylisoxazol-3-yl)-3-(3-(6-methoxy-7-(3-(piperidin-1-yl)propoxy)quinazolin-4-ylthio)phenyl)urea] | 500 to 1000
250 to 500 | > 1000 | 250 to 500 | COc1cc2ncnc(Oc3cccc(NC(=O)Nc4ccc(OC)c(C(F)(F)F)c4)c3)c2cc1OC [Ex 138, 1-(3-(6,7-dimethoxyquinazolin-4-yloxy)phenyl)-3-(4-methoxy-3-(trifluoromethyl)phenyl)urea] | 
250 to 500 | 500 to 1000 | < 250 | COc1cc2ncnc(Sc3cccc(NC(=O)Nc4cc(C(C)(C)C)on4)c3)c2cc1OCCCN1CCOCC1 [Ex 63, 1-(5-tert-butylisoxazol-3-yl)-3-(3-(7-methoxy-6-(3-morpholinopropoxy)quinazolin-4-ylthio)phenyl)urea] | 
 | < 250 | < 250 | COc1cc2c(Oc3cccc(NC(=O)Nc4cc(C(C)(C)C)on4)c3)ncnc2cc1OCCCN1CCN(CCO)CC1 [Ex 30, 1-(5-tert-butylisoxazol-3-yl)-3-(3-(7-(3-(4-(2-hydroxyethyl)piperazin-1-yl)propoxy)-6-methoxyquinazolin-4-yloxy)phenyl)urea] | 250 to 500
 | 500 to 1000 | < 250 | COc1cc2ncnc(Oc3cccc(NC(=O)Nc4cc(C(C)(C)C)on4)c3)c2cc1OC [Ex 1, 1-(5-tert-butylisoxazol-3-yl)-3-(3-(6,7-dimethoxyquinazolin-4-yloxy)phenyl)urea] | 250 to 500
250 to 500 | 250 to 500 | < 250 | COc1cc2c(Sc3cccc(NC(=O)Nc4cc(C(C)(C)C)on4)c3)ncnc2cc1OCCCN1CCC(CO)CC1 [Ex 74, 1-(5-tert-butylisoxazol-3-yl)-3-(3-(7-(3-(4-(hydroxymethyl)piperidin-1-yl)propoxy)-6-methoxyquinazolin-4-ylthio)phenyl)urea] | 
 | < 250 | < 250 | COc1cc2ncnc(Oc3cc(NC(=O)Nc4cc(C(C)(C)C)on4)ccc3F)c2cc1OC [Ex 9, 1-(5-tert-butylisoxazol-3-yl)-3-(3-(6,7-dimethoxyquinazolin-4-yloxy)-4-fluorophenyl)urea] | 500 to 1000
500 to 1000 | > 1000 | 250 to 500 | COc1cc2ncnc(Oc3cccc(NC(=O)Nc4cc(C(C)(C)C)on4)c3)c2cc1OCCN1CCCCC1 [Ex 16, 1-(5-tert-butylisoxazol-3-yl)-3-(3-(7-methoxy-6-(2-(piperidin-1-yl)ethoxy)quinazolin-4-yloxy)phenyl)urea] | 
250 to 500 | < 250 | < 250 | COc1cc2ncnc(Sc3cccc(NC(=O)Nc4cc(C(C)(C)C)on4)c3)c2cc1OCCN1CCOCC1 [Ex 70, 1-(5-tert-butylisoxazol-3-yl)-3-(3-(7-methoxy-6-(2-morpholinoethoxy)quinazolin-4-ylthio)phenyl)urea] | 
 | > 1000 | 250 to 500 | COc1cc2ncnc(Sc3cccc(NC(=O)Nc4cc(C(C)(C)C)on4)c3)c2cc1OCCN1CCCCC1 [Ex 65, 1-(5-tert-butylisoxazol-3-yl)-3-(3-(7-methoxy-6-(2-(piperidin-1-yl)ethoxy)quinazolin-4-ylthio)phenyl)urea] | 500 to 1000
250 to 500 | < 250 | < 250 | COc1cc2ncnc(Oc3cccc(NC(=O)Nc4cc(C(C)(C)C)on4)c3)c2cc1OCCCN1CCS(=O)(=O)CC1 [Ex 26, 1-(5-tert-butyl-isoxazol-3-yl)-3-(3-{6-[3-(1,1-dioxo-thiomorpholin-4-yl)-propoxy]-7-methoxy-quinazolin-4-yloxy}-phenyl)-urea] | 
250 to 500 | < 250 | < 250 | COc1cc2ncnc(Oc3cccc(NC(=O)Nc4cc(C(C)(C)C)on4)c3)c2cc1O[C@H]1CCN(CC(F)F)C1 [Ex 110, (S)-1-(5-tert-butylisoxazol-3-yl)-3-(3-(6-(1-(2,2-difluoroethyl)pyrrolidin-3-yloxy)-7-methoxyquinazolin-4-yloxy)phenyl)urea] | 
250 to 500 | < 250 | < 250 | COc1cc2ncnc(Oc3cccc(NC(=O)Nc4cc(C(C)(CF)CF)on4)c3)c2cc1OC [Ex 162, 1-[5-(1,3-difluoro-2-methylpropan-2-yl)isoxazol-3-yl]-3-[3-(6,7-dimethoxyquinazolin-4-yloxy)phenyl]urea] | 
